The subject of the assay is MHCC97L cells. Kind of assay: EV secretion of MHCC97L cells treated with Tipifarnib. Type of assay: cell-based, human. To be noted: 1 μM Tipifarnib for 48 hr; EVs isolated from conditioned medium. On the procedure: FIGS. 11A-11B Reduction of EV secretion attenuates liver tumor formation. (A) Quantification of EVs isolated from conditioned medium of MHCC97L treated with 1 μM Tipifarnib or DMSO vehicle for 48 hr. The analysis was done in triplicate. (B) Image of dissected liver of mice subjected to orthotopic liver injection of Matrigel/MHCC97L (1×10^6 cells/injection) pretreated with 48-hr DMSO or Tipifarnib (1 μM) (n=6). Measurement of tumor volume is shown. Data are represented as mean±SEM. *P<0.05 and ***P<0.001 from Student's t test.
Protein lysates were obtained by cell lysis with NETN lysis buffer (0.1% NP40, 25 mM Tris-HCl, 50 mM […], 0.2 mM EDTA), supplemented with 10% cOmplete™ protease inhibitor cocktail and 10% PhosStop phosphatase inhibitor cocktail (Roche Applied Science). Bradford reagent (Bio-Rad Corporation) using bovine serum albumin as standard concentration was used to quantify protein amount. […] Chemiluminescent signals were detected by ECL™ Western Blotting Detection Reagents (Amersham). […] The level of EV-CD63 was expressed as amount of CD63 over EV protein amount (μg/μg) (w/w). […] The amount of isolated EVs was quantified. […] After 6 weeks post injection, mice were sacrificed and liver tumor volume was measured using a caliper and calculated using the formula: volume=L×W^2×0.5 (L, the largest diameter; W, the smallest diameter). […]

Turning to `Cn1cncc1[C@@](N)(c1ccc(Cl)cc1)c1ccc2c(c1)c(-c1cccc(Cl)c1)cc(=O)n2C` [tipifarnib, Tipifarnib], the “reduction of EV secretion from MHCC97L cells” value is listed as “up to 50%”.

(Values after patent US12099061B2, “Nidogen 1 as a diagnostic marker and therapeutic target of hepatocellular carcinoma, composition and methods thereof” (THE UNIVERSITY OF HONG KONG, priority 2020, dated 2024).)
